According to publication PMC12299463, “Cladolosides of Groups S and T: Triterpene Glycosides from the Sea Cucumber Cladolabes schmeltzii with Unique Sulfation; Human Breast Cancer Cytotoxicity and QSAR” (Marine Drugs, 2025):
Several values for one entry are separate records, joined by “and”; a condition that tells them apart may be missing. Equal entries are not always repeated. Structures can show the parent of a compound that is named as a salt. Where two headings read alike, the source gives them in different places.

Legend:
[1] = system: MCF-7 human breast cancer cells; assay: cells; format: cell-based; settings: for Selectivity Index (SI), MCF-7: ratio of IC50 for healthy (MCF-10A) and MCF-7 cells;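 as to all read-outs here: IC50 values, including those behind the selectivity ratio, derive from formazan absorbance at 570 nm, tested in triplicate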
[2] = system: MCF-10A non-tumor mammary epithelial cell line; assay: in vitro; format: cell-based, human
[3] = system: T-47D human breast cancer cells; assay: cells; format: cell-based; settings: for Selectivity Index (SI), T-47D: ratio of IC50 for healthy (MCF-10A) and T-47D cells;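 as to all read-outs here: cell viability read as absorbance of formazan dye at 570 nm, each experiment run in triplicate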
[4] = system: MDA-MB-231 triple-negative breast cancer cells; assay: cells; format: cell-based, human; settings: for Selectivity Index (SI), MDA-MB-231: ratio of IC50 for healthy (MCF-10A) and MDA-MB-231 cells
human erythrocytes = assay: Hemolytic activity against human erythrocytes; format: cell-based; settings: for ED50, Erythrocytes (hemolytic activity): 1 h at 37 °C
Protocol: A total of 450 g of human blood (B(III) Rh+) was used to obtain erythrocytes by centrifuging three times for 5 min with phosphate-buffered saline (PBS) (pH 7.4) at 4 °C on a centrifuge LABOFUGE 400R (Heraeus, Hanau, Germany). Ice-cold PBS (pH 7.4) was used for resuspension of erythrocyte residue to a final optical density of 1.5 at 700 nm. Then, 20 µL of tested compound solutions or control (cucumarioside A0-1 [15]) were added to 180 µL of erythrocyte suspension in V-bottom 96-well plates and incubated for 1 h at 37 °C. After centrifugation (900 g, 10 min, laboratory centrifuge LMC-3000 (Biosan, Riga, Latvia)), 100 µL of supernatant was transferred into new flat plates. The values of erythrocyte lysis were measured on microplate photometer Multiskan FC (Thermo Fisher Scientific, Waltham, MA, USA) at λ = 570 nm as hemoglobin concentration in supernatant. […] All the experiments were carried out in triple repetitions, p < 0.05.

[5] = MTT assay, MCF-7, read-out: Cytotoxicity, IC50, MCF-7
[6] = MTT assay, MCF-10A, read-out: Cytotoxicity, IC50, MCF-10A
[7] = MTT assay, T-47D, read-out: Cytotoxicity, IC50, T-47D
[8] = MTT assay, MDA-MB-231, read-out: Cytotoxicity, IC50, MDA-MB-231

SMILES	IC50 [1, 5]	IC50 [2, 6]	IC50 [3, 7]	Selectivity Index (SI), T-47D [3]	IC50 [4, 8]	ED50, Erythrocytes (hemolytic activity) (human erythrocytes; listed as K2 (32))	ED50, Erythrocytes (hemolytic activity) (human erythrocytes; listed as cladoloside K2 (32))	Selectivity Index (SI), MCF-7 [1]	Selectivity Index (SI), MDA-MB-231 [4]	Hemolytic (membranolytic) activity, in words (human erythrocytes)	ED50, Erythrocytes (hemolytic activity) (human erythrocytes)	Hemolytic (membranolytic) activity, in words (human erythrocytes; listed as M1 (35))	Hemolytic (membranolytic) activity, in words (human erythrocytes; listed as cladoloside M1 (35))	IC50 [1]	IC50 [2]	IC50 [3]	IC50 [4]
C=C(C)CC[C@@H](O)[C@]1(C)OC(=O)C23CC=C4[C@@H](CC[C@H]5C(C)(C)[C@@H](O[C@@H]6OC[C@@H](O[C@@H]7O[C@H](CO)[C@@H](O)[C@H](O[C@@H]8O[C@H](CO)[C@@H](O)[C@H](OC)[C@H]8O)[C@H]7O)[C@H](O)[C@H]6O[C@@H]6O[C@H](C)[C@@H](O[C@@H]7OC[C@@H](O)[C@H](O[C@@H]8O[C@H](COS(=O)(=O)[O-])[C@@H](O)[C@H](OC)[C@H]8O)[C@H]7O)[C@H](O)[C@H]6O)CC[C@]45C)[C@]2(C)C[C@H](OC(C)=O)[C@@H]31.[Na+] (stereo partly drawn) [Cladoloside K2 (32), cladoloside K2]	> 20 µM	14.5 ± 1.07 µM	14.1 ± 0.91 µM	1.03	6.81 ± 0.73 µM	4.63 ± 0.41 µM	4.63 µM										
C=C(C)CCC[C@]1(C)OC(=O)C23CC=C4[C@@H](CC[C@H]5C(C)(C)[C@@H](O[C@@H]6OC[C@@H](O[C@@H]7O[C@H](CO)[C@@H](O)[C@H](O[C@@H]8O[C@H](COS(=O)(=O)[O-])[C@@H](O)[C@H](OC)[C@H]8O)[C@H]7O)[C@H](O)[C@H]6O[C@@H]6O[C@H](C)[C@@H](O[C@@H]7OC[C@@H](O)[C@H](O[C@@H]8O[C@H](CO)[C@@H](O)[C@H](OC)[C@H]8O)[C@H]7O)[C@H](O)[C@H]6O)CC[C@]45C)[C@]2(C)CC(=O)[C@@H]31.[Na+] (stereo partly drawn) [Cladoloside L1 (33), Cladoloside L1]	12.7 ± 1.01 µM	17.9 ± 1.12 µM	9.03 ± 0.81 µM	1.98	13.4 ± 1.08 µM			1.41	1.34	strong hemolytics	0.20 ± 0.02 µM						
C=C(C)CCC[C@]1(C)OC(=O)C23CC=C4[C@@H](CC[C@H]5C(C)(C)[C@@H](O[C@@H]6OC[C@@H](O[C@@H]7O[C@H](CO)[C@@H](O)[C@H](O[C@@H]8O[C@H](CO)[C@@H](O)[C@H](OC)[C@H]8O)[C@H]7O)[C@H](O)[C@H]6O[C@@H]6O[C@H](C)[C@@H](O[C@@H]7O[C@H](CO)[C@@H](O)[C@H](O[C@@H]8O[C@H](CO)[C@@H](O)[C@H](OC)[C@H]8O)[C@H]7O)[C@H](O)[C@H]6O)CC[C@]45C)[C@]2(C)CC(=O)[C@@H]31 (stereo partly drawn) [Cladoloside M1 (35), cladoloside M1]	> 20 µM	9.81 ± 0.86 µM	17.1 ± 1.52 µM	0.57	5.05 ± 0.38 µM				1.94		0.08 ± 0.01 µM	strong hemolytics	most active compound				
C=C(C)CCC[C@]1(C)OC(=O)C23CC=C4[C@@H](CC[C@H]5C(C)(C)[C@@H](O[C@@H]6OC[C@@H](O[C@@H]7O[C@H](CO)[C@@H](O)[C@H](O[C@@H]8O[C@H](CO)[C@@H](O)[C@H](OC)[C@H]8O)[C@H]7O)[C@H](O)[C@H]6O[C@@H]6O[C@H](C)[C@@H](O[C@@H]7OC[C@@H](O)[C@H](O[C@@H]8O[C@H](CO)[C@@H](O)[C@H](O)[C@H]8O)[C@H]7O)[C@H](O)[C@H]6O)CC[C@]45C)[C@]2(C)CC(=O)[C@@H]31 (stereo partly drawn) [Cladoloside P2 (41), Cladoloside P2]	16.3 ± 1.03 µM	11.1 ± 0.74 µM	10.6 ± 0.61 µM	1.05	6.92 ± 0.44 µM			0.68	1.60	strong hemolytics	0.17 ± 0.02 µM						
CO[C@@H]1[C@@H](O)[C@H](O[C@@H]2[C@@H](O)[C@H](O[C@@H]3CO[C@@H](O[C@H]4CC[C@]5(C)C6=CCC78C(=O)O[C@@](C)([C@@H](CCC(C)C)OC(C)=O)[C@H]7[C@@H](OC(C)=O)C[C@@]8(C)[C@@H]6CC[C@H]5C4(C)C)[C@H](O[C@@H]4O[C@H](C)[C@@H](O[C@@H]5OC[C@@H](O)[C@H](O[C@@H]6O[C@H](CO)[C@@H](O)[C@H](OS(=O)(=O)O)[C@H]6O)[C@H]5O)[C@H](O)[C@H]4O)[C@H]3O)O[C@H](CO)[C@H]2O)O[C@H](CO)[C@H]1O (stereo partly drawn) [Cladoloside T1 (4), 3β-O-{3-O-sodium sulfate-β-D-glucopyranosyl-(1→3)-β-D-xylopyranosyl-(1→4)-β-D-quinovopyranosyl-(1→2)-[3-O-methyl-β-D-glucopyranosyl-(1→3)-β-D-glucopyranosyl-(1→4)]-β-D-xylopyranosyl}-16S,22R-diacetoxyholost-9-en]											0.12 µM and 0.12 ± 0.02 µM			7.78 ± 0.62 µM	8.41 ± 0.4 µM	7.41 ± 0.69 µM	2.94 ± 0.21 µM
